Measured values reported in paper PMC5834492, “Antimycobacterial drug discovery using Mycobacteria-infected amoebae identifies anti-infectives and new molecular targets” (Scientific Reports, 2018).
Read-outs that look alike come from different tables or passages of the source.

Legend:
[1] = test system: M. marinum in A. castellanii; format: cell-based, Mycobacterium marinum; settings: 10 µM
[2] = test system: M. marinum in BV2 microglial cells; format: cell-based, Mycobacterium marinum; settings: for BV2 / M. marinum normalised growth, control=1.00, mean / hit in BV2/M. marinum assay True/False: 10 µM
Mtb H37Rv = test system: Mtb H37Rv; parameters: method as in Sorrentino et al, 2015; settings: ref Sorrentino et al, 2015; cited from earlier work
Mtb H37Rv in THP-1 = test system: Mtb H37Rv in THP-1; parameters: method as in Sorrentino et al, 2015; settings: ref Sorrentino et al, 2015, cited from earlier work; for Extracellular MIC90/ Inracellular MIC90: ratio
M. marinum GFP = format: cell-based, Mycobacterium marinum; settings: 10 µM; antibiotic assay
D. discoideum GFP-ABD = settings: 10 µM
M. marinum luxCDABE = format: cell-based, Mycobacterium marinum; settings: 10 µM
[3] = THP1 / Mtb H37Rv infection assay

Row | SMILES | A. castellanii / M. marinum normalised growth, control=1.00, mean [1] | IC50 [2] [µM] | BV2 / M. marinum normalised growth, control=1.00, mean [2] | Extracellular MIC90 (Mtb H37Rv) [µM] | Intracelullar MIC90 in THP-1 (Mtb H37Rv in THP-1; [3]) [µM] | Extracellular MIC90/ Inracellular MIC90 (Mtb H37Rv in THP-1) | M. marinum GFP normalised growth, control=1.00, mean (M. marinum GFP) | D. discoideum GFP-ABD normalised growth, control=1.00, mean (D. discoideum GFP-ABD) | M. marinum luxCDABE normalised growth, control=1.00, mean (M. marinum luxCDABE) | Hits A. castellanii/M. marinum assay True/False [1] | hit in BV2/M. marinum assay True/False [2] | Intracelullar MIC90 in THP-1 (Mtb H37Rv in THP-1; Mtb H37Rv-infected THP1 cells) [µM] | M. marinum luxCDABE normalised growth, control = 1.00, mean (M. marinum luxCDABE)
1 | Nc1cc(OCc2ccccc2)ccc1Nc1ccccc1 [GV187303X] | 1.05 | 5.44 | 0.55 | 9.4 | 50 | 0.19 | 0.71 | 0.89 | 0.90 | – | – | – | –
2 | Cc1nc2ccccn2c1C(=O)NCc1ccc2c(c1)OCO2 [GSK498315A] | 0.56 | 5.95 | 0.47 | 2.9 | 1.85 | 1.57 | 0.0644 | 0.81 | 0.00 | FALSE | TRUE | 1.85 | 0,00
3 | O=C(NC12CC3CC(CC(C3)C1)C2)c1cc2cc(Cl)ccc2[nH]1 [GW623128X] | 0.51 | 4.92 | 0.66 | 1 | 0.07 | 14.28 | 0.86 | 1.06 | 0.00 | – | – | – | –
4 | O=C(C=Cc1cccs1)N1CCN(Cc2ccc3c(c2)OCO3)CC1 [GW861072X] | 0.54 | 7.99 | 0.48 | 0.3 | 0.61 | 0.49 | 0.05 | 0.68 | 0.00 | FALSE | TRUE | 0.61 | 0,00
5 | Cc1nc2ccccn2c1C(=O)NCc1cccs1 [GSK892651A] | 0.65 | 4.41 | 0.60 | 9 | 5.55 | 1.62 | 0.12 | 0.83 | 0.00 | – | – | – | –
6 | COc1ccc(CCNC(=O)c2c(C)nc3ccccn23)cc1 [GSK762874A] | 0.70 | 3.64 | 0.59 | 3.1 | 5.55 | 0.56 | 0.08 | 1.04 | 0.00 | – | – | – | –
7 | O=C(NCc1ccc(Oc2ccccc2)cc1)c1c(C(F)(F)F)nc2ccccn12 [GSK1829676A] | 0.56 | – | 0.35 | 0.2 | 0.21 | 0.95 | 0.0321 | 0.75 | 0.00 | FALSE | TRUE | 0.21 | 0,00
8 | Cc1occc1C(=O)Nc1nc(-c2ccccn2)nc2ccsc12 [GSK237561A] | 1.57 | 3.9 | 0.73 | 4 | 1.85 | 2.16 | 0.31 | -0.0741 | 0.00 | – | – | – | –
9 | O=C(C=Cc1cccs1)N1CCN(Cc2ccc(Br)s2)CC1 [GSK1744926A] | 0.74 | 4.18 | 0.70 | 1.9 | 1.85 | 1.03 | 0.13 | 0.50 | 0.00 | – | – | – | –
10 | Br.CC1(C)N=C(N)N=C(N)N1OCCc1ccc2ccccc2c1 [BRL-8088SA] | 2.26 | 2.81 | 0.52 | 2.3 | 5.55 | 0.41 | 0.05 | 0.71 | 0.00 | – | – | – | –
11 | Cc1ccc2nc(C(F)(F)F)c(C(=O)NCc3cccs3)n2c1 [GSK1829729A] | 0.52 | 0.08 | 0.48 | 0.9 | 0.61 | 1.47 | 0.0432 | 0.86 | 0.00 | FALSE | TRUE | 0.61 | 0,00
12 | Cl.O=C(c1ccco1)N(CCCn1ccnc1)c1nc2c(Cl)cccc2s1 [GSK1788487A] | 1.34 | 4.96 | 0.94 | 8.4 | 50 | 0.17 | 0.66 | 0.32 | 0.09 | – | – | – | –
13 | FC(F)(F)c1nnc2ccc(Cl)nn12 [GSK352635A] | 1.02 | 7.58 | 0.89 | 9.1 | 50 | 0.18 | 0.81 | 1.17 | 0.60 | – | – | – | –
14 | Cc1ccc(C(=O)Nc2nc(-c3ccccn3)cs2)s1 [GSK1372568A] | 1.35 | 5.33 | 0.95 | 8.4 | 50 | 0.17 | 0.69 | 0.31 | 0.00 | – | – | – | –
